According to US12170135B2, “Systems and methods for evaluating query perturbations” (Recursion Pharmaceuticals, Inc., priority 2019, dated 2024):
“Also recorded” adds a separate entry of the source.

Legend:
[1] = test system: NF2 deficiency in primary human cells; test: Primary drug screens on NF2 loss-of-function model; assay type: cell-based; details: for rescue of NF2 loss-of-function phenotype: primary screen
Excerpt: To identify novel and effective treatments for NF2, a loss-of-function model of the disease in a primary human cells and screened for molecules that rescue the disease-specific phenotype. […] These figures illustrate results from a series of primary drug screens to identify drug candidates for NF2 from a library of approximately 2000 small molecules. Scores for control perturbations (largely clustered in region 1102), test perturbations (largely clustered in region 1104), and query perturbations (largely clustered in region 1106), are shown in the plots. A small number of hits were algorithmically selected based on their effects in the assay and used for further screening.

patients with NF2 = details: Phase 2 study; cited from earlier work
SMA patients = details: clinical trials; cited from earlier work
SMN protein = details: cell-based assays and patients; cited from earlier work
[2] = test system: Chk2 phosphorylation in ATM knockdown A549 cells; test: Western blot for phosphorylated Chk2 in siRNA transfected A549 cells treated with H2O2; assay type: cell-based; details: H2O2 treatment
Procedure: Glucocorticoids are identified by the dashed red polygon 901. […] Western blots probed for ATM and phosphorylated Chk2.
To further validate these compounds, disease-specific studies were performed. In response to DNA damage, ATM stimulates phosphorylation of a host of target proteins, including the checkpoint kinase Chk2. As expected, it was observed that siRNA-mediated knockdown of ATM mRNA in the A549 model cell-line suppressed phosphorylation of Chk2 after H2O2 treatment. Moreover, most glucocorticoids tested restored Chk2 phosphorylation to nearly 50% of control levels, with betamethasone and dexamethasone showing the least rescue (FIG. 9C).

[3] = test system: ATM deficiency in A549 cells; test: Cell Painting phenotypic screen on the A-T disease model (on-target/off-target scores); details: ATM disease signature, FIG. 9B
Excerpt: (§1) Hits were algorithmically selected based on effect and screened with a higher replicate count in a tertiary screen. […] The length of the wider green bars, such as bar 910, represents changes in individual features of increasing or decreasing magnitude that best represent the ATM disease signature. The impact of each drug on individual features is overlaid in a second, narrower red shaded bar, such as bar 911. […] The order of the features was randomized between individual plots, and individual feature labels are omitted. […] Western blots probed for ATM and phosphorylated Chk2. […] The lower plots represent quantification of phosphorylated Chk2 from the Western Blot, n=3. H=Healthy; *denotes p<0.05, two-sided paired ratio t-test.
(§2) Small molecule compounds were then tested on the A-T disease model using the screening methods described herein.

[4] = test system: Chk2 phosphorylation in primary fibroblasts derived from a patient with A-T; test: Western blot for phosphorylated Chk2 in primary fibroblasts from a patient with A-T; assay type: cell-based, human; details: H2O2
[5] = test system: ATM deficiency in A549 cells
Excerpt: as §1, §2

For CO[C@H]1C[C@@H]2CC[C@@H](C)[C@@](O)(O2)C(=O)C(=O)N2CCCC[C@H]2C(=O)O[C@H]([C@H](C)C[C@@H]2CC[C@@H](OCCO)[C@H](OC)C2)CC(=O)[C@H](C)/C=C(\C)[C@@H](O)[C@@H](OC)C(=O)[C@H](C)C[C@H](C)/C=C/C=C/C=C/1C [everolimus], the “rescue of NF2 loss-of-function phenotype” value [1] is listed as “minimal efficacy” and the “clinical efficacy in NF2 / meningioma” value (patients with NF2) is listed as “failed to demonstrate efficacy”.

With CCN(CC)CCNC(=O)c1c(C)[nH]c(/C=C2\C(=O)Nc3ccc(F)cc32)c1C [Sunitinib, sunitinib] the “side-effect profile in NF2 screen” value [1] was “minimal increase in side-effect profile”.

For CCCC(CCC)C(=O)O [Valproic acid], the “clinical improvement in SMA” value (SMA patients) is given as “modest clinical improvement” and the SMN protein level (SMN protein) is given as “increases full length SMN protein”.

In the case of C[C@@H]1C[C@H]2[C@@H]3CCC4=CC(=O)C=C[C@]4(C)[C@@]3(Cl)[C@@H](O)C[C@]2(C)[C@@]1(O)C(=O)CCl [mometasone], the “rescue of Chk2 phosphorylation associated with ATM deficiency” value [2] is reported as “better rescue ATM deficiency”, the “rescue of Chk2 phosphorylation associated with ATM deficiency” value ([2]; listed as Mometasone) is reported as “superior P-Chk2 rescue” and the “impact on the twenty most prominent phenotypic disease features” value [3] is reported as “rescues a subset of features”. For the same compound, the “rescue of Chk2 phosphorylation in primary patient-derived cells” value [4] was “dose-dependent rescue of Chk2 phosphorylation; also recorded: dose-dependent increase in Chk2 phosphorylation”.

For CS(=O)(=O)CCNCc1ccc(-c2ccc3ncnc(Nc4ccc(OCc5cccc(F)c5)c(Cl)c4)c3c2)o1 [lapatinib], the “clinical efficacy in NF2 / meningioma” value (patients with NF2) is given as “antitumor activity in a subset of patients” and the “tolerability in patients with NF2” value (patients with NF2) is given as “well tolerated”.

For CNC(=O)c1cccc(-c2ccc3c(N4CCOC[C@@H]4C)nc(N4CCOC[C@@H]4C)nc3n2)c1 [AZD2014], the “side-effect profile in NF2 screen” value [1] was “elevated side-effect profile compared to another highly selective mTOR inhibitor” and the “rescue of NF2 loss-of-function phenotype” value [1] was “strong rescue”.

With C[C@H]1C[C@H]2[C@@H]3CCC4=CC(=O)C=C[C@]4(C)[C@@]3(F)[C@@H](O)C[C@]2(C)[C@@]1(O)C(=O)CO [betamethasone] the “side effect profile (off-target score) in the screen” value [5] was “greater side effects”.
